Reference: patent publication US20100197587A1, “USE OF A PEPTIDE AS A THERAPEUTIC AGENT” (priority 2007, published 2010)
No end group written: not given here.

Legend:
HIV-1IIIB = experiment: HIV-1 antiviral assay in CEM-SS cells (MTS readout); settings: positive controls
HCMV strain AD169 = experiment: HCMV plaque formation assay in MRC-5 cells; settings: for inhibition of HCMV plaque formation as compared to the virus control experiment: 10 micrograms per ml, 7-10 days
[1] = test system: hepatitis B virus (HBV) ayw strain; experiment: HBV assay in HepG2-2.2.15 cells (secreted HBV DNA by TaqMan PCR); type: cell-based; settings: 10 micrograms per ml; HepG2-2.2.15, six days, HBV DNA in supernatant
spleen cells = experiment: Th1/Th2 cytokine profiling assay (Ovalbumin-restimulated spleen cells); settings: 10 micrograms per ml; Ovalbumin restimulation, 72 hours, supernatant
From the text: The Balb/c mice (originated in 1923, it is a popular strain and is used in many different research disciplines. Also classified as an inbred from the production of 20 or more successive brother-sister matings, the Balb/c mouse is albino and small in size) were immunized on Days 1, 15, and 29 with Ovalbumin (Ovalbumin is the main protein found in egg white, commonly used to stimulate an immunological reaction in test animals) in PBS (5 micrograms/injection). On day 50, spleens of the mice were harvested (3 weeks after last boost with Ovalbumin). […] Thereafter, additional Ovalbumin was added to the cells at 10 micrograms/ml for in vitro restimulation of the cells. 72 hours later, cell supernatants were harvested and assayed using the Becton Dickinson Mouse Th1/Th2 Cytokine CBA Kit. This kit can be used to measure Interleukin-2 (IL-2), Interleukin-4 (IL-4), Interleukin-5 (IL-5), Interferon-γ (IFN-γ), and Tumor Necrosis Factor-α (TNF-α) protein levels in a single sample.

[2] = test system: RAW 264.7 (Mouse leukaemic monocyte macrophage cell line) cells; experiment: Phagocytosis assay (Fluorescein-labeled Escherichia coli, flow cytometry); type: cell-based; settings: 10 micrograms per ml; RAW 264.7, Fluorescein-labeled E. coli

Question: How did the “antiviral activity of positive control compounds (HIV-1)” value (HIV-1IIIB) turn out when `Cc1cn([C@H]2C[C@H](N=[N+]=[N-])[C@@H](CO)O2)c(=O)[nH]c1=O` [AZT] was run?
Answer: expected levels of antiviral activity

Question: With `Nc1nc(O)c2ncn(COC(CO)CO)c2n1` [Ganciclovir, reference compound] as the compound, how does the “antiviral activity of positive control compound (HCMV)” value (HCMV strain AD169; positive control, HCMV AD169) read?
Answer: expected levels of antiviral activity

Question: With `CC(C)(C)NC(=O)[C@@H]1CN(Cc2cccnc2)CCN1C[C@@H](O)C[C@@H](Cc1ccccc1)C(=O)N[C@H]1c2ccccc2C[C@H]1O` [indinavir] as the compound, how does the “antiviral activity of positive control compounds (HIV-1)” value (HIV-1IIIB) read?
Answer: expected levels of antiviral activity

Question: What does the source list for “His-Ala-Asp-Gly-Ser-Phe-Ser-Asp-Glu-Met-Asn-Thr-Ile-Leu-Asp-Asn-Leu-Ala-Ala-Arg-Asp-Phe-Ile-Asn-Trp-Leu-Ile-Gln-Thr-Lys-Ile-Thr-Asp-Arg-OH (HADGSFSDEMNTILDNLAARDFINWLIQTKITDR-OH) [Peptide 1]”?
Answer: inhibition of HBV replication as compared to the virus control infection [1]: 59.7%; inhibition of HCMV plaque formation as compared to the virus control experiment (HCMV strain AD169): did not inhibit; IFNγ spleen cells; TH1 response (% of control) (spleen cells): 132.7 % of control; IL-2 spleen cells (% of control) (spleen cells): 0.0 % of control; IL-4 spleen cells; TH2 response (% of control) (spleen cells): 0.0 % of control; IL-5 spleen cells; TH2 response (% of control) (spleen cells): 48.2 % of control; TNF-a spleen cells; TH1 response (% of control) (spleen cells): 102.2 % of control; increase of the phagocytic activity of murine macrophages [2]: 22.9%

Question: Which “inhibition of HBV replication as compared to the virus control infection” value [1] does the source give for “His-Ala-Asp-Gly-Ser-Phe-Ser-Asp-Glu-Met-Asn-Thr-Ile-Leu-Asp-Asn-Leu-Ala-Ala-Arg-Asp-Phe-Ile-Asn-Trp-Leu-Ile-Gln-Thr-Lys-Ile-Thr-Asp-OH [Peptide 2]” here?
Answer: 59.2%

Question: What about the “inhibition of HCMV plaque formation as compared to the virus control experiment” value (HCMV strain AD169) of the same compound?
Answer: 18.8%

Question: What about the “IFNγ spleen cells; TH1 response (% of control)” value (spleen cells) of the same compound?
Answer: 132.7 % of control

Question: And the “IL-2 spleen cells (% of control)” value (spleen cells)?
Answer: 183.3 % of control

Question: What about the “IL-4 spleen cells; TH2 response (% of control)” value (spleen cells) of the same compound?
Answer: 104.4 % of control

Question: What about the “IL-5 spleen cells; TH2 response (% of control)” value (spleen cells) of the same compound?
Answer: 108.4 % of control

Question: And the “TNF-a spleen cells; TH1 response (% of control)” value (spleen cells)?
Answer: 143.7 % of control

Question: What about the “inhibitory effects on the phagocytic activity of murine macrophages” value [2] of the same compound?
Answer: no inhibitory effects
